Assay results from US8658618B2, “Methods for preventing or reducing neurotoxicity associated with administering DPD inhibitors in combination with 5-FU and 5-FU prodrugs” (Adherex Technologies, Inc., priority 2009, dated 2014).
Read-outs that look alike come from different tables or passages of the source. One block for each compound: values may come before it.

Tests used:
[1] = test system: tumor; conditions: tumor-bearing rats and tissue culture; cited from earlier work
[2] = test system: dogs; conditions: cited from earlier work
[3] = cited from earlier work; for elimination half-life of 5-FU: Phase I
[4] = test system: cancer patients; assay: Clinical trial: 5 mg eniluracil followed 12-24 hours later by 5-FU, neurotoxicity; type: in vivo, human; conditions: then 30-160 mg 5-FU 12-24 hours later, 41 patients
Experimental: Therefore, a clinical trial was initiated wherein cancer patients were administered a 5 mg dose of eniluracil followed by 5-FU at a 30-160 mg dose 12-24 hours later. Unexpectedly, the majority of the 41 patients undergoing this treatment experienced some form of mild to severe neurotoxicity, with the main neurological symptoms being ataxia (an unsteady gait), neuropathy, confusion, dizziness, and slurred speech.
Based on this important finding, a clinical trial was initiated wherein cancer patients were administered a 5 mg dose of eniluracil, which was believed to be sufficient to systemically eliminate DPD activity in the patients. 5-FU was then administered 12-24 hours later at a dose of 30-160 mg. Unexpectedly, however, the majority of the 41 patients undergoing this treatment experienced some form of mild to severe neurotoxicity, with the main neurological symptoms being ataxia (an unsteady gait), neuropathy, confusion, dizziness, and slurred speech.
A clinical trial was initiated based on the important mechanistic findings described in WO 2006/060697. More specifically, cancer patients were administered a 5 mg dose of eniluracil and 12-24 hours thereafter were administered a 30-160 mg dose of 5-FU. […]

[5] = test system: tumor; conditions: excess eniluracil present at the time 5-FU is administered; cited from earlier work
[6] = test system: cancer patients; conditions: cited from earlier work
[7] = test system: patients with colorectal cancer; conditions: cited from earlier work
[8] = humans; cited from earlier work
[9] = molecular target: T1, DPD (Homo sapiens, UniProt Q12882); conditions: the two patients with neurotoxicity, 20 mg eniluracil (9.5 and 8.0 mg/m^2); cited from earlier work
T1 construct: eliminated greater than 90% of DPD in peripheral blood cells for prolonged periods; from tissue; host or cells: peripheral blood cells of cancer patients
T1 sequence (Q12882 4-1025): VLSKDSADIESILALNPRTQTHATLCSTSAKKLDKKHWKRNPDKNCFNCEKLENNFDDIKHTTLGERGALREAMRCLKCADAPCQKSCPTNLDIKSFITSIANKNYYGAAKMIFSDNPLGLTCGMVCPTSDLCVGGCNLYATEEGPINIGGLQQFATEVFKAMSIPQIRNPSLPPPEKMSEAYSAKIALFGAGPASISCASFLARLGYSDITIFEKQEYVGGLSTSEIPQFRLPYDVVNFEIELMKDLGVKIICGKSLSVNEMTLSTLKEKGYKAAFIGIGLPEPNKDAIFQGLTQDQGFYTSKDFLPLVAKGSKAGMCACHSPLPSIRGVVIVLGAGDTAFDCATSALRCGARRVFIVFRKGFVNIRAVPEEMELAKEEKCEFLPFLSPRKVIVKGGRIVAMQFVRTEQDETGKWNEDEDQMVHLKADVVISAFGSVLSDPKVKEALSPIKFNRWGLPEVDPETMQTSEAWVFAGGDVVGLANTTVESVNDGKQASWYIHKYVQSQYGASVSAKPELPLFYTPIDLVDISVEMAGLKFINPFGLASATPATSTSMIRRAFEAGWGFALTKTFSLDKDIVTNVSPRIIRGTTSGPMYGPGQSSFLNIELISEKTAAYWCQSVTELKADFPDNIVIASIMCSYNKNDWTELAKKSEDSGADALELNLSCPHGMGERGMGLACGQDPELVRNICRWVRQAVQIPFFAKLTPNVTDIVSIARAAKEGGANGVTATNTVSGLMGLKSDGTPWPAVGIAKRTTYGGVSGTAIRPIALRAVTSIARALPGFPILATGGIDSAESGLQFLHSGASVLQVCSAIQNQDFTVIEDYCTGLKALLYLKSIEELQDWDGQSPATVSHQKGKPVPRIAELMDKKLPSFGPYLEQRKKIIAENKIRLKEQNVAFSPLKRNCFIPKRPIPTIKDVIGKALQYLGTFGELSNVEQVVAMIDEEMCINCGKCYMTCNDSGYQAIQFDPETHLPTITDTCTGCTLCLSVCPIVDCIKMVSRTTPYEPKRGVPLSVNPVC

[10] = test system: tumors; conditions: eniluracil with 5-FU, laboratory animals bearing tumors; cited from earlier work
[11] = molecular target: T1, DPD; conditions: eniluracil 0.74 mg/m^2 (about 1 mg total), for prolonged periods; cited from earlier work
[12] = molecular target: T2, DPD (Rattus norvegicus, UniProt O89000); conditions: rats; spleen, intestinal mucosa, lung; cited from earlier work
T2 construct: from tissue; host or cells: rat brain, liver, spleen, intestinal mucosa, lung (in vivo dosing)
T2 sequence (O89000 1-1025): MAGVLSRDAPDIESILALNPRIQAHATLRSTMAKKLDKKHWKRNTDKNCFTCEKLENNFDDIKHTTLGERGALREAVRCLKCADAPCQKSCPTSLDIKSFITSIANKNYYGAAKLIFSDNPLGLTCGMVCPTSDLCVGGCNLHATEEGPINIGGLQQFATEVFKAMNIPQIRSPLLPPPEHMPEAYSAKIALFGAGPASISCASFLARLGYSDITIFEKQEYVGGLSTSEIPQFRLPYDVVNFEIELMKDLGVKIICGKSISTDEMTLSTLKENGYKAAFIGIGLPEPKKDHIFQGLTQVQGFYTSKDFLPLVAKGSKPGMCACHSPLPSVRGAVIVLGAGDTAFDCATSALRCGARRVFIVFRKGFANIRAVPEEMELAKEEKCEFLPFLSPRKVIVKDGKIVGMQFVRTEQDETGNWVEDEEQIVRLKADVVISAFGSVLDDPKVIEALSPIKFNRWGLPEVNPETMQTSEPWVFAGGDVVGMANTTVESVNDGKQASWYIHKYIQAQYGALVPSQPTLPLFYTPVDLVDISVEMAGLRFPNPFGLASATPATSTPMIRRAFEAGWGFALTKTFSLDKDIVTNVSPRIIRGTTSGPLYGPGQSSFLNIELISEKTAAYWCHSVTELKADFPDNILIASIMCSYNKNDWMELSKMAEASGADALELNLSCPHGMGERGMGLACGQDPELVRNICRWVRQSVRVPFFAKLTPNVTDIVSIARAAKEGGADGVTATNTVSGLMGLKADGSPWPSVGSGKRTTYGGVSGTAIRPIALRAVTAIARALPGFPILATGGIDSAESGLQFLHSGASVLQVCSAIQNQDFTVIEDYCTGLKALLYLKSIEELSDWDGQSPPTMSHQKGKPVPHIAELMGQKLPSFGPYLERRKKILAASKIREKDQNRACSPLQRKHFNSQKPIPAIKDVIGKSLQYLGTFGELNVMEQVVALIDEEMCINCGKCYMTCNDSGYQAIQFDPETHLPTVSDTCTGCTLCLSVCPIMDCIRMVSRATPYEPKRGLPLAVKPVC

[13] = test system: patients; conditions: 20 mg eniluracil before 5-FU; 17 patients; cited from earlier work
[14] = Calculated amount of eniluracil remaining in the body after 10.5 hours; parameters: species or system human; conditions: approximately three elimination half-lives
Experimental: The amounts of eniluracil shown in Table 1 below may be used achieve doses in the 16-20 mg/m^2 range. The calculated amount of eniluracil remaining in the body after 10.5 hours (approximately three elimination half-lives) is also presented. Thus, if the weekly and the 5-day dosing schedules employ doses of 5-FU ranging between about 15-50 mg/m^2, the ratio of eniluracil to 5-FU will always be less than about 1:6 when 5-FU is administered. For example, when the commonly used 25 mg/m^2 dose of 5-FU is administered 10.5 hours after eniluracil, the ratio of eniluracil to 5-FU will be about 1:10 or less.

[15] = test system: mice, monkeys, cats, and dogs; conditions: in vivo; cited from earlier work

Structure (SMILES): Nc1nc2c(c(=O)[nH]1)N(C=O)C(CNc1ccc(C(=O)N[C@@H](CCC(=O)O)C(=O)O)cc1)CN2 (stereo partly shown) [Leucovorin]
antitumor efficacy of eniluracil and 5-FU [1]: improve the antitumor efficacy

Structure (SMILES): O=c1[nH]cc(F)c(=O)[nH]1 [5-FU, 5-Fluorouracil]
neurotoxicity ([2]; intravenous 5-FU alone, only low blood levels of 5-FU): induced seizures, muscle tremors, and ataxia
elimination half-life of 5-FU ([3]; after one dose of eniluracil): 3.5 h
half-life of 5-FU ([3]; eniluracil 3.7 mg/m^2): 4.5 to 6.5 h
5-FU elimination half-life ([3]; with eniluracil): 4.5 to 6.5 h
elimination half-life of 5-FU ([3]; without eniluracil): about 10 minutes
5-FU elimination half-life ([3]; without eniluracil): 0.167 to 0.333 h

Estimated Amount of Eniluracil remaining 10.5 hr after dosing ([14]; eniluracil dose 25 mg): 3.1 mg
Estimated Amount of Eniluracil remaining 10.5 hr after dosing ([14]; eniluracil dose 30 mg): 3.8 mg
Estimated Amount of Eniluracil remaining 10.5 hr after dosing ([14]; eniluracil dose 40 mg): 5.0 mg
Estimated Amount of Eniluracil remaining 10.5 hr after dosing ([14]; eniluracil dose 50 mg): 6.3 mg
Structure (SMILES): C#Cc1c[nH]c(=O)[nH]c1=O [eniluracil, 5-ethynyluracil]
patients experiencing some form of mild to severe neurotoxicity [4]: majority
antitumor activity of 5-FU [5]: significantly diminished
toxicity ([6]; Phase I clinical trials in cancer patients): without causing toxicity
safety ([6]; doses up to 50 mg per day for seven days): safe
antitumor benefit versus standard regimen of 5-FU/leucovorin ([7]; 10 mg/m^2 eniluracil and 1 mg/m^2 5-FU every 12 hr for 28 days, North American trial): less antitumor benefit
total incidence of severe neurotoxicity ([7]; eniluracil about 11.5 mg/m^2 every 12 hours): 6%
elimination half-life for eniluracil [8]: about 3.5 hours
DPD in peripheral blood cells [9]: completely inactivated
antitumor efficacy of 5-FU [10]: significantly improved
DPD eliminated in peripheral blood cells [11]: greater than 90%
neurotoxicity ([2]; dogs pretreated with eniluracil, high blood levels of 5-FU): without any neurotoxicity
dose required to inactivate 50% of DPD in brain relative to liver and other non-nervous tissues [12]: approximately six-fold
incidence of neurotoxicity [13]: 12%

Structure (SMILES): NCC(F)C(=O)O (stereo not drawn) [F-Bal, α-fluoro-β-alanine]
neurotoxicity [15]: can cause neurotoxicity
